Experimental data as given in ChEMBL document CHEMBL5329214, “4-Arylidene curcumin derivatives in vitro inhibit α-Synuclein aggregation and disaggregate the preformed fibril” (Bioorg Med Chem, 2023).
The source made the active and inactive calls. The calls are words filed in the database; no cut-off is given here.

Legend:
[1] = target: T1, Alpha-synuclein (Homo sapiens, UniProt P37840); experiment: Inhibition of alpha-Synuclein (unknown origin) aggregation incubated for 72 hrs by ThT-based fluorescence analysis
[2] = target: T1, Alpha-synuclein; experiment: Inhibition of alpha-Synuclein (unknown origin) aggregation assessed as alteration in typical alpha-Syn "S" shaped aggregation kinetics by measuring reduction in aggregation rate in elongation phase at 30 uM measured for 86 hrs by ThT-based fluorescence analysis
[3] = target: T1, Alpha-synuclein; experiment: Inhibition of alpha-Synuclein (unknown origin) aggregation assessed as alteration in typical alpha-Syn "S" shaped aggregation kinetics by measuring reduction in oligomeric nuclei in lag phase at 30 uM measured for 86 hrs by ThT-based fluorescence analysis
[4] = target: T1, Alpha-synuclein; experiment: Inhibition of alpha-Synuclein (unknown origin) aggregation assessed as alteration in typical alpha-Syn "S" shaped aggregation kinetics by measuring weakening of primary nucleation in lag phase at 30 uM measured for 86 hrs by ThT-based fluorescence analysis

| IC50 [1] | inhibition [2] | inhibition [3] | inhibition [4] | SMILES |
| --- | --- | --- | --- | --- |
| 3.3 µM | – | – | – | COc1cc(/C=C/C(=O)CC(=O)/C=C/c2ccc(O)c(OC)c2)ccc1O [CURCUMIN] |
| 4.39 µM | Active | Active | Active | COc1cc(/C=C/C(=O)C(=Cc2ccc(O)cc2)C(=O)/C=C/c2ccc(O)c(OC)c2)ccc1O |
